Assay results taken from patent US20260306502A1, “MITOCHONDRIAL UNCOUPLERS FOR TREATMENT OF METABOLIC DISEASES AND CANCER” (Mito Biopharma, LLC, priority 2022, published 2026).
Like-named read-outs stand apart in the source and are kept apart here. Each block holds one molecule with its values, some of them ahead of it.

Tests used:
[1] = Metabolic stability assay in rat liver microsomes; assay type: in vitro ADME; settings: for half-life at 1 µM: rat, liver microsomes
Method: The metabolic stability of the compounds was evaluated in incubation with rat liver microsomes.

[2] = Rat pharmacokinetics study, oral gavage (Example B8); assay type: in vivo
Method: Pharmacokinetics of the testing compounds was determined in male SD rats, n=3. Briefly, each compound was prepared in 0.5% CMC-Na and 1% Tween in water to yield a homogeneous suspension at 1 mg/ml, and then administrated to 10 mg/kg via oral gavage. The animals were fasted overnight before dosing and fed for 4 hour post dosing with free access to water for all time. Blood samples were collected at pre-dose, 0.083, 0.25, 0.5, 1, 2, 4, 8 and 24 hours, into K2EDTA-coated tube via tail vein for serial sampling and cardiac puncture for terminal sampling. […] Plasma samples were stored at approximately −80° C. until analysis. The compound in the plasma samples were then extracted and concentrations determined by LC-MS/MS.

[3] = PO pharmacokinetic study, oral exposure (Example B3); assay type: in vivo; settings: for AUC at 24 h / AUC(0-t) at 24 h: blood, po; for AUC at 24 h: 10 mg/kg gavage; for Fold increase over Compound 27 in U.S. Pat. No. 10,227,315: ratio of oral AUC 24 hr
Method: The blood concentration of the compound was then determined at 0 (pre-dosing), 5 min, 15 min, 30 min, 1 hr, 2 hr, 4 hr, 8 hr, 24 hr time points by LC-MS/MS analysis (See Tables 1 and 2, vide supra).

[4] = test system: C2C12 cells; assay: Mitochondrial uncoupling activity by oxygen consumption rate (OCR) assay, Seahorse, in presence of oligomycin; assay type: cell-based, mouse; settings: for minimal effective concentration: Mus musculus, C2C12, in the presence of oligomycin 2.5 μM, read-out: COCR-min: minimal concentration increasing OCR in the presence of oligomycin
Summary of the method: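 Mouse C2C12 myoblasts grown in 10% FBS medium had OCR measured on Seahorse XF96/XF24 sequentially: basal, after 2.5 μM oligomycin (final), then after compound at varying concentrations. Rotenone/antimycin A confirmed mitochondrial origin. COCR-min is the minimal compound concentration inducing OCR in the presence of oligomycin.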

[5] = test system: high-fat diet (HFD)-induced diabetic mouse model; assay: Efficacy in high-fat diet (HFD)-induced diabetic/fatty liver mouse model; assay type: in vivo; settings: Mus musculus; HFD model, oral daily gavage; read-out: Efficacious dosage to reduce blood glucose in mouse models, oral daily gavage
Method: For HFD induced diabetic mouse model, C57Bl6 mice (male, n=6) were induced to obese and diabetic conditions by feeding high-fat diet (HFD, 60% fat calories, Research Diet, Inc. New Brunswick, NJ) for 3-4 months. […] During the 3-week period, the mice continued feeding HFD. […] The blood glucose levels were measured after an overnight fast, plasma insulin levels were tested after 5-6 hours fast, and the glycated HbA1c levels were determined in whole blood samples.
FIG. 15C and FIG. 15D show liver sections from mice fed HFD following 3 weeks of treatment with Compounds 25 and 64, respectively (P.O. dosing of 5 mg/kg, by daily gavage).
Experiments were similarly performed with other compounds, in either high-fat diet induced diabetes and fatty liver models, or in db/db mouse model, or in both, by daily oral gavage administration with low dosages.

[6] = test system: C2C12; assay: Cell growth inhibition assay (SRB), C2C12; assay type: cell-based; settings: Mus musculus, C2C12, 48 h
Method: Cell growth inhibition assays were performed using a protocol standardized by National Cancer Institute (NCI) for evaluating anti-cancer drugs. Various mammalian cell lines were used for the assays. Briefly, the cells were inoculated into 96 well microtiter plates. After cell inoculation, the microtiter plates were incubated for cell growth for 24 h prior to the addition of compounds. After 24 h, two plates of each cell line were fixed in situ with TCA, to represent a measurement of the cell population for each cell line at the time of compound addition (Tz). Test compounds were solubilized in dimethyl sulfoxide. At the time of test compound addition, five 10-fold or ½ log serial dilutions were made to provide a total of five test compound concentrations plus control. Aliquots of 100 μl of these different test compound dilutions were added to the appropriate microtiter wells already containing 100 μl of the medium, resulting in the required final test compound concentrations. […] The bound stain was subsequently solubilized with 10 mM trizma base, and the absorbance was read on an automated plate reader at a wavelength of 515 nm. Using the seven absorbance measurements [time zero, (Tz), control growth, (C), and test growth in the presence of a compound at the five concentration levels (Ti)], the percentage growth was calculated at each of the test compound concentrations levels.

[7] = test system: cultured mammalian cells, the NIH-3T3 cells, C2C12 cells, and other mammalian cell lines; assay: Mitochondrial membrane potential (MMP) assay, TMRE (or DilC1(5)) staining, related to OCR induction; assay type: cell-based; settings: ratio of concentration leading to 10% MMP retention (90% MMP loss, TMRE) to minimal concentration leading to OCR increase
Method: Mitochondrial membrane potential assay was performed using the standard TMRE (tetramethylrhodamine ethyl ester) staining method with cultured mammalian cells, the NIH-3T3 cells, C2C12 cells, and other mammalian cell lines. Cells were seeded in 6-well plates and cultured in DMEM medium supplemented with 10% fetal bovine serum and 2 mM glutamine. Cells were allowed to grow to the logarithmic growth phase prior to experiments. The cells were treated with each individual compound at various concentrations for two hours, followed by staining with TMRE at a final concentration of 100 nM for 15 minutes. The cells were then washed once with PBS, and examined under fluorescence microscopy. Cells treated with various concentrations of niclosamide ethanolamine were used as a positive control.
In some examples, mitochondrial membrane potential was measured with DilC1(5) staining. Briefly, DilC1(5) was added to the cells to 50 nM final concentration and the cells were incubated at 37° C., 5% CO2, for 15 to 30 minutes. Cells were washed once by adding 2 mL of warm phosphate-buffered saline (PBS). Mitochondrial staining was determined by fluorescence microscopy with 633 nm excitation using standard filters for far-red emission.
Using the ratio between C10% TMRE (the concentration at which 10% MMP remains, i.e. 90% MMP is lost) and Cmin-OCR (the concentration at which minimal OCR induction is observed), we categorized the MMP-retaining uncouplers into two groups.

[8] = test system: LX-2 cells (human hepatic stellate cells); assay: Inhibition of TGFβ-induced hepatic stellate cell differentiation into myofibroblast-like cells; assay type: cell-based; settings: TGFβ 10 ng/ml; for minimal effective concentration: Homo sapiens, LX-2, hepatic stellate cell differentiation to myofibroblast-like cells, 24 hours, read-out: Minimal inhibitory concentration; for inhibition of TGFβ-induced hepatic stellate cell differentiation: in words
Method: Liver fibrosis is one hallmark of NASH. […] This process could be modeled in vitro using the hepatic stellate differentiation experiment. The human hepatic stellate LX-2 cells were cultured within DMEM (Dulbecco's Modified Eagle Media, pH 7.4) supplied with 2% fetal bovine serum, 4.5 g/l glucose and 2 mM glutamine to 100 percent confluence. […] Cellular morphology was then examined under a microscope. As shown in FIG. 16 to FIG. 17, hepatic stellate cells could be induced by TGF-beta to differentiate into myofibroblast-like cells.

[9] = test system: animal models; settings: mixed with food, cited from earlier work; for dose required to achieve efficacy, equivalent: equivalent of ppm in diet
[10] = test system: HepG2; assay: Cell growth inhibition assay (SRB), HepG2; assay type: cell-based; settings: Homo sapiens, HepG2, 48 h
Method: Cell growth inhibition assays were performed using a protocol standardized by National Cancer Institute (NCI) for evaluating anti-cancer drugs. Various mammalian cell lines were used for the assays. Briefly, the cells were inoculated into 96 well microtiter plates. After cell inoculation, the microtiter plates were incubated for cell growth for 24 h prior to the addition of compounds. After 24 h, two plates of each cell line were fixed in situ with TCA, to represent a measurement of the cell population for each cell line at the time of compound addition (Tz). Test compounds were solubilized in dimethyl sulfoxide. At the time of test compound addition, five 10-fold or ½ log serial dilutions were made to provide a total of five test compound concentrations plus control. Aliquots of 100 μl of these different test compound dilutions were added to the appropriate microtiter wells already containing 100 μl of the medium, resulting in the required final test compound concentrations. Following test compound addition, the plates were incubated for an additional 48 h. The assay was terminated by the addition of cold TCA. Cells were fixed in situ with 50 μl of cold 50% (w/v) TCA (final concentration, 10% TCA), washed five times with tap water and air-dried. Sulforhodamine B (SRB) solution (100 μl) at 0.4% (w/v) in 1% acetic acid was added to each well, and plates were incubated for 10 minutes at room temperature. After staining, the unbound dye was removed by washing five times with 1% acetic acid and the plates were air-dried. The bound stain was subsequently solubilized with 10 mM trizma base, and the absorbance was read on an automated plate reader at a wavelength of 515 nm. Using the seven absorbance measurements [time zero, (Tz), control growth, (C), and test growth in the presence of a compound at the five concentration levels (Ti)], the percentage growth was calculated at each of the test compound concentrations levels.

[11] = in words, cited from earlier work

AUC at 24 h [3]: 60000 to 120000 ng·h/mL
SMILES: C[C@@H]1CN(Cc2cc(Cl)cc(C(=O)Nc3nc4ccc(C(F)(F)F)cc4s3)c2O)C[C@H](C)O1.Cl [Compound 11, 5-chloro-3-((cis-2,6-dimethylmorpholino)methyl)-2-hydroxy-N-(6-(trifluoromethyl)benzo[d]thiazol-2-yl)benzamide]
minimal effective concentration [4]: < 5 µM
minimal effective dose [5]: 1 mg/kg
GI50 [6]: 5 to 20 µM

AUC at 24 h [3]: 10000 to 30000 ng·h/mL
SMILES: Cl.O=C(Nc1nc2ccc(C(F)(F)F)cc2s1)c1cc(Cl)cc(CN2CCOCC2)c1O [Compound 16, 5-chloro-2-hydroxy-3-(morpholinomethyl)-N-(6-(trifluoromethyl)benzo[d]thiazol-2-yl)benzamide]
minimal effective concentration [4]: < 5 µM
effect on oxygen consumption rate (OCR) ([4]; in words): increase OCR in the presence of oligomycin
minimal effective concentration [8]: 5 µM
inhibition of TGFβ-induced hepatic stellate cell differentiation [8]: able to directly inhibit hepatic stellate cell (HSC) activation in vitro
minimal effective dose [5]: 1 mg/kg

AUC(0-t) at 24 h ([3]; 10 mg/kg): ~3000 ng·h/mL
Fold increase over Compound 27 in U.S. Pat. No. 10,227,315 [3]: 1.0
SMILES: CCc1cc(Cl)cc(C(=O)Nc2nc3ccc(C(F)(F)F)cc3s2)c1O [Compound 27 in U.S. Pat. No. 10,227,315, reference compound]
dose required to achieve efficacy, equivalent [9]: 60 to 75 mg/kg/day
dose required to achieve efficacy, in diet [9]: 600-750 ppm

AUC(0-t) at 24 h ([3]; 10 mg/kg): 4410 ng·h/mL
Fold increase over Compound 27 in U.S. Pat. No. 10,227,315 [3]: 1.5
SMILES: Cc1cc(Cl)cc(C(=O)Nc2nc3ccc(C(F)(F)F)cc3s2)c1O [Compound 28 in U.S. Pat. No. 10,227,315, reference compound]
dose required to achieve efficacy, equivalent [9]: 60 to 75 mg/kg/day
dose required to achieve efficacy, in diet [9]: 600-750 ppm

GI50 [10]: < 5 µM
SMILES: O=C(Nc1nc2ccc(C(F)(F)F)cc2s1)c1cc(Cl)cc(CN2CCC(C(F)(F)F)CC2)c1O [Compound 57, 5-chloro-2-hydroxy-N-(6-(trifluoromethyl)benzo[d]thiazol-2-yl)-3-((4-(trifluoromethyl)piperidin-1-yl)methyl)benzamide]
minimal effective concentration [4]: < 5 µM

GI50 [10]: < 5 µM
SMILES: Cc1cc(Cl)cc(C(=O)Nc2nc3c(C4CCCO4)cc(C(F)(F)F)cc3s2)c1O (stereo not drawn) [Compound 71, 5-chloro-2-hydroxy-3-methyl-N-(4-(tetrahydrofuran-2-yl)-6-(trifluoromethyl)benzo[d]thiazol-2-yl)benzamide]
minimal effective concentration [4]: < 5 µM

AUC(0-t) at 24 h ([3]; 50 mg/kg): ~1800 ng·h/mL
SMILES: O=C(Nc1ccc([N+](=O)[O-])cc1Cl)c1cc(Cl)ccc1O [niclosamide ethanolamine]
dose required to achieve efficacy, equivalent [9]: 150 mg/kg/day
dose required to achieve efficacy, in diet [9]: 1500 ppm

The remaining lines, values behind:

SMILES: CN(C)CCc1cc(Cl)cc(C(=O)Nc2nc3ccc(C(F)(F)F)cc3s2)c1O [Compound 2 of U.S. Pat. No. 10,227,315]
Metabolic stability half-life (T1/2, min, rat liver microsome) ([1]; 1 μM compound, 0.5 mg/ml microsomal protein, 37° C., 1 µM): 2,132 min
half-life at 1 µM ([1]; 1 μM compound, 0.5 mg/ml microsomal protein, 37° C., read-out: Metabolic stability half-life (T1/2, min, rat liver microsome)): 35.5 h
half-life at 1 µM ([1]; rat liver microsomes, read-out: rat microsome metabolic stability, half-life): 35.5 h
Rat Oral PK (in vivo) half-life (T1/2, hour) ([2]; 10 mg/kg oral gavage): 66.9 h
half-life ([2]; plasma, 10 mg/kg, oral): 66.9 h

SMILES: COCCOCc1cc(C(F)(F)F)cc2sc(NC(=O)c3cc(Cl)cc(C)c3O)nc12 [Compound 13, 5-chloro-2-hydroxy-N-(4-((2-methoxyethoxy)methyl)-6-(trifluoromethyl)benzo[d]thiazol-2-yl)-3-methylbenzamide]
AUC at 24 h [3]: 30000 to 60000 ng·h/mL
minimal effective concentration [4]: < 5 µM
C10%TMRE/Cmin-OCR [7]: ~13
GI50 [6]: 5 to 20 µM

SMILES: O=C(Nc1nc2ccc(C(F)(F)F)cc2s1)c1cc(Cl)cc(CN2CCCC2)c1O [Compound 23, 5-chloro-2-hydroxy-3-(pyrrolidin-1-ylmethyl)-N-(6-(trifluoromethyl)benzo[d]thiazol-2-yl)benzamide]
AUC at 24 h [3]: 10000 to 30000 ng·h/mL
minimal effective concentration [4]: < 5 µM
minimal effective concentration [8]: 5 µM
inhibition of TGFβ-induced hepatic stellate cell differentiation [8]: able to directly inhibit hepatic stellate cell (HSC) activation in vitro
minimal effective dose [5]: 10 mg/kg

SMILES: COCc1cc(C(F)(F)F)cc2sc(NC(=O)c3cc(Cl)cc(C)c3O)nc12 [Compound 68, 5-chloro-2-hydroxy-N-(4-(methoxymethyl)-6-(trifluoromethyl)benzo[d]thiazol-2-yl)-3-methylbenzamide]
GI50 [10]: < 5 µM
AUC at 24 h [3]: 30000 to 60000 ng·h/mL
minimal effective concentration [4]: < 5 µM

SMILES: O=[N+]([O-])c1ccc(O)c([N+](=O)[O-])c1 [DNP, 2,4-dinitrophenol]
half-life [11]: days to weeks
toxicity in humans ([11]; human obesity treatment): exhibited high levels of toxicity and had a narrow therapeutic window
C10%TMRE/Cmin-OCR [7]: ≤ 3
